Assay results from ChEMBL document CHEMBL4265969, “Design, synthesis and biological evaluation of (2S,3R,4R,5S,6R)-5-fluoro-6-(hydroxymethyl)-2-aryltetrahydro-2H-pyran-3,4-diols as potent and orally active SGLT dual inhibitors” (Bioorg Med Chem Lett, 2018).
Calls of active or inactive are those of the source. The calls are words filed in the database; no cut-off is given here.

What was measured:
[1] = Cmax in cynomolgus monkey at 10 mg/kg, po; type: ADME, organism-based, Macaca fascicularis; design: dose 10 mg/kg, route oral; conditions: in vivo
Mus musculus [2] = test: In vivo inhibition of SGLT2 in db/db mouse assessed as increase in urine glucose excretion at 10 mg/kg, po after 24 hrs; type: functional, organism-based
[3] = Oral bioavailability in cynomolgus monkey at 10 mg/kg; type: ADME, organism-based, Macaca fascicularis; conditions: in vivo
[4] = AUC (0 to infinity) in Sprague-Dawley rat at 10 mg/kg, po; type: ADME, organism-based; design: dose 10 mg/kg, route oral, time infinity; conditions: in vivo
Rattus norvegicus [5] = test: Antidiabetic activity in Sprague-Dawley rat assessed as decrease in postprandial blood glucose AUC at 1 mg/kg, po administered 1 hr prior to glucose challenge measured up to 120 mins by OGTT relative to control; type: functional; design: scale not given: the % may be the effect or the level left
[6] = Half life in cynomolgus monkey at 2 mg/kg, iv; type: ADME, organism-based, Macaca fascicularis; conditions: in vivo
[7] = Clearance in Sprague-Dawley rat at 2 mg/kg, iv; type: ADME, organism-based; conditions: in vivo
[8] = target: T1, Sodium/glucose cotransporter 1 (Rattus norvegicus, UniProt P53790); test: Inhibition of rat SGLT1 expressed in CHOK1 cells assessed as reduction in Na-dependent [14C]-AMG uptake preincubated for 10 mins followed by [14C]-AMG addition measured after 2 hrs by TopCount method; type: cell-based
T1 sequence (P53790 whole entry): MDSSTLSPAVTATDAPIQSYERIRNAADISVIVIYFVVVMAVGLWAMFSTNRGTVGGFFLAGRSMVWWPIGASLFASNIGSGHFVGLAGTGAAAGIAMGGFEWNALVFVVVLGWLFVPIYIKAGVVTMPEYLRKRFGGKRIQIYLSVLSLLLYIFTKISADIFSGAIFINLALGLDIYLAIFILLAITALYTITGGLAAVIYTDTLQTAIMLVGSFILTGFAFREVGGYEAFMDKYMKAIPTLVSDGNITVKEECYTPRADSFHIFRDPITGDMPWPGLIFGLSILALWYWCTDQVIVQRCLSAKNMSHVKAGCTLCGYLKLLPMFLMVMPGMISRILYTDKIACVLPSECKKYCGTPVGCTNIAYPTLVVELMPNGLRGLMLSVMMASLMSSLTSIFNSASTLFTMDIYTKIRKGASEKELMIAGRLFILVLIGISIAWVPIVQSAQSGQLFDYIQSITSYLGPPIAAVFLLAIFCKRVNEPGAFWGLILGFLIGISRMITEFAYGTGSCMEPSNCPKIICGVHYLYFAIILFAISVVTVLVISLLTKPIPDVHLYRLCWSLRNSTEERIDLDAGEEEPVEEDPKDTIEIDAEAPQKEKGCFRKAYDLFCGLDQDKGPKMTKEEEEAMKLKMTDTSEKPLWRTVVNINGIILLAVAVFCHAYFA

[9] = Tmax in Sprague-Dawley rat at 10 mg/kg, po; type: ADME, organism-based; conditions: in vivo
[10] = Metabolic stability in rat liver microsomes at 1 uM after 10 mins in presence of NADPH; type: ADME, microsome; conditions: read-out: Stability
[11] = Volume of distribution at steady state in Sprague-Dawley rat at 2 mg/kg, iv; type: ADME, organism-based; conditions: in vivo, read-out: Vdss
[12] = Volume of distribution at steady state in cynomolgus monkey at 2 mg/kg, iv; type: ADME, organism-based, Macaca fascicularis; conditions: in vivo, read-out: Vdss
[13] = Clearance in cynomolgus monkey at 2 mg/kg, iv; type: ADME, organism-based, Macaca fascicularis; conditions: in vivo
[14] = Cmax in Sprague-Dawley rat at 10 mg/kg, po; type: ADME, organism-based; design: dose 10 mg/kg, route oral; conditions: in vivo
[15] = Metabolic stability in human liver microsomes at 1 uM after 10 mins in presence of NADPH; type: ADME, microsome; conditions: read-out: Stability
Mus musculus [16] = test: Anti-hyperglycemic effect in db/db mouse assessed as decrease in fed blood glucose AUC at 10 mg/kg, po measured up to 24 hrs relative to control; type: functional; design: scale not given: the % may be the effect or the level left
[17] = Half life in Sprague-Dawley rat at 2 mg/kg, iv; type: ADME, organism-based; conditions: in vivo
[18] = Tmax in cynomolgus monkey at 10 mg/kg, po; type: ADME, organism-based, Macaca fascicularis; conditions: in vivo
[19] = Metabolic stability in mouse liver microsomes at 1 uM after 10 mins in presence of NADPH; type: ADME, microsome; conditions: read-out: Stability
[20] = target: Voltage-gated inwardly rectifying potassium channel KCNH2 (Homo sapiens, UniProt Q12809); test: Inhibition of human ERG at 50 uM
[21] = Oral bioavailability in Sprague-Dawley rat at 10 mg/kg; type: ADME, organism-based; conditions: in vivo
[22] = Half life in Sprague-Dawley rat at 10 mg/kg, po; type: ADME, organism-based; conditions: in vivo
[23] = AUC (0 to infinity) in cynomolgus monkey at 10 mg/kg, po; type: ADME, organism-based, Macaca fascicularis; design: dose 10 mg/kg, time infinity, route oral; conditions: in vivo
[24] = target: T2, Sodium/glucose cotransporter 2 (Rattus norvegicus, UniProt P53792); test: Inhibition of rat SGLT2 expressed in CHOK1 cells assessed as reduction in Na-dependent [14C]-AMG uptake preincubated for 10 mins followed by [14C]-AMG addition measured after 2 hrs by TopCount method; type: cell-based
T2 sequence (P53792 whole entry): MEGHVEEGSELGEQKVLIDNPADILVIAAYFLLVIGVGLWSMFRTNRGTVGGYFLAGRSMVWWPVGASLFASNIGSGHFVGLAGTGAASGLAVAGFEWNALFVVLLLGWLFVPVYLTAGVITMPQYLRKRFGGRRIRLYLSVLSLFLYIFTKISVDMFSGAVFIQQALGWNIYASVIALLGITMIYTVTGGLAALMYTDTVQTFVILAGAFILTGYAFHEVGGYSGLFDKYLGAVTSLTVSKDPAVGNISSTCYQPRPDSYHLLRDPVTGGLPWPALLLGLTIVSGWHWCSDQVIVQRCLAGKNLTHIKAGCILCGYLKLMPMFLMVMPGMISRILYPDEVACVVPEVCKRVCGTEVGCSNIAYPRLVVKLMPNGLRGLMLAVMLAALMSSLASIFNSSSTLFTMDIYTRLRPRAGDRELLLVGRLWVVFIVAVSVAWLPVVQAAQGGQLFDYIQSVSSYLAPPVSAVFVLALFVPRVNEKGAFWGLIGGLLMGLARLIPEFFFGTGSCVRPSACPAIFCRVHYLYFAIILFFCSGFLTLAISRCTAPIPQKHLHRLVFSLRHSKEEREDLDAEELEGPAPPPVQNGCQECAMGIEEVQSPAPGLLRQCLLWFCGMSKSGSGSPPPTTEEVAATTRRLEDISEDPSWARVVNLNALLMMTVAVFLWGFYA

[25] = Half life in human hepatocytes at 1 uM; type: ADME, cell-based, Hepatocyte
Salmonella typhimurium = test: Genotoxicity in Salmonella typhimurium TA98; type: toxicity, organism-based; conditions: salmonella enterica subsp. enterica serovar typhimurium
Rattus norvegicus [26] = test: Anti-hyperglycemic effect in ZDF rat assessed as decrease in fed blood glucose AUC at 10 mg/kg, po measured up to 24 hrs relative to control; type: functional; design: scale not given: the % may be the effect or the level left
[27] = Half life in dog hepatocytes at 1 uM; type: ADME, cell-based, Canis lupus familiaris, Hepatocyte
[28] = Half life in cynomolgus monkey at 10 mg/kg, po; type: ADME, organism-based, Macaca fascicularis; conditions: in vivo
[29] = Half life in monkey hepatocytes at 1 uM; type: ADME, cell-based, Macaca mulatta, Hepatocyte; conditions: rhesus monkey
Rattus norvegicus [30] = test: Antidiabetic activity in Sprague-Dawley rat assessed as decrease in postprandial blood glucose level administered orally 1 hr prior to glucose challenge measured up to 120 mins by OGTT; type: functional, organism-based
[31] = Half life in Sprague-Dawley rat hepatocytes at 1 uM; type: ADME, cell-based, Hepatocyte

Voltage-gated inwardly rectifying potassium channel KCNH2, sequence (Q12809 whole entry): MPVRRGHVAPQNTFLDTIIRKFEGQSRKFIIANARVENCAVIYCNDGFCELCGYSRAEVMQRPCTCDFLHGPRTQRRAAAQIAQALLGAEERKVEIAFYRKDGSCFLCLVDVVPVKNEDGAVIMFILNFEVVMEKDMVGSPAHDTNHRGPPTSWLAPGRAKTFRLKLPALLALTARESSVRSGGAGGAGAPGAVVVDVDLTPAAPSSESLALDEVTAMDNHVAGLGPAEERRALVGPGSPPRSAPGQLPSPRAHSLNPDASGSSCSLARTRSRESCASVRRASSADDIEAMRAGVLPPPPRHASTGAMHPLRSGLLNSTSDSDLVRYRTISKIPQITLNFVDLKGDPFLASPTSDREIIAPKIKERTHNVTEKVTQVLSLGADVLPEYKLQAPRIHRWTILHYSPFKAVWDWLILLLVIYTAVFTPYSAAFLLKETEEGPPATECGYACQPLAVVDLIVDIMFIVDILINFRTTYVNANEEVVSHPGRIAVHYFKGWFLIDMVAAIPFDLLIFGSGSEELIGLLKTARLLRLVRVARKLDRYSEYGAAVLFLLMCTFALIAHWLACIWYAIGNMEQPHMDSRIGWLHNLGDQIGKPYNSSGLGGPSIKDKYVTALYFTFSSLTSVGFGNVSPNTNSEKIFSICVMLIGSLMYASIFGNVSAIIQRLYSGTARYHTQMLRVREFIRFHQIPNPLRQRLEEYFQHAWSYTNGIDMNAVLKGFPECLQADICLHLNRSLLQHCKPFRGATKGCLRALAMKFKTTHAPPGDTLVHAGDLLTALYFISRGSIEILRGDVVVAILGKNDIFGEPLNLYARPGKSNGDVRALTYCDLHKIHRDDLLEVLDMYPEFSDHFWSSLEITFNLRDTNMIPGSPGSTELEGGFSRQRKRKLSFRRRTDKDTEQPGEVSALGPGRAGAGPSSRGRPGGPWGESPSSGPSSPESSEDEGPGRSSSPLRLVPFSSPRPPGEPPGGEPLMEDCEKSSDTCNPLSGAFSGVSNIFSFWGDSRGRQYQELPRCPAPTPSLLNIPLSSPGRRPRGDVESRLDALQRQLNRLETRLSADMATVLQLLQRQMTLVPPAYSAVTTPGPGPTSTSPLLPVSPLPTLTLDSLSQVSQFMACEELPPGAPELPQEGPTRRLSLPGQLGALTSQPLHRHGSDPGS

Cmax [1]: 1490 ng/mL
bioavailability [3]: 56%
AUC(0-inf) [4]: 1600 ng·h/mL
half-life [6]: 7.9 h
clearance [7]: 50.9 mL/min/kg
IC50 [8]: 68 nM
Tmax [9]: 0.3 h
remaining at 10 min, 1 µM [10]: 66%
Vd [11]: 1.07 L/kg
Vd [12]: 3.05 L/kg
clearance [13]: 15.5 mL/min/kg
Cmax [14]: 990 ng/mL
remaining at 10 min, 1 µM [15]: 95%
half-life [17]: 0.41 h
Tmax [18]: 1.33 h
remaining at 10 min, 1 µM [19]: 82%
bioavailability [21]: 48.2%
half-life [22]: 1.44 h
AUC(0-inf) [23]: 6090 ng·h/mL
IC50 [24]: 16 nM
half-life at 1 µM [25]: 5.4 h
half-life at 1 µM [27]: 8 h
half-life [28]: 5.6 h
half-life at 1 µM [29]: 2.2 h
half-life at 1 µM [31]: 1.2 h
Structure (SMILES): COc1c([C@@H]2O[C@H](CO)[C@@H](F)[C@H](O)[C@H]2O)cc(Cc2ccc3c(c2)OCCO3)c2c1CCO2
inhibition (Mus musculus [2]): Active
Activity (Rattus norvegicus [5]): 32.4%
Activity (Mus musculus [16]): 57.4%
inhibition (INH) [20]: Not Active
Activity (Salmonella typhimurium): Non-Toxic
Activity (Rattus norvegicus [26]): 56.8%
Activity (Rattus norvegicus [30]): Dose-dependent effect
